# Several values for one entry are separate records, joined by “and”; a condition that tells them apart may be missing. Identical values can stand only once.
# Tested on: 485368-065-R3-J5-PDC spheroids with HUVEC/MSC, viability
# Experiment: Anticancer human tumor 485368-065-R3-J5-PDC patient-derived pancreatic carcinoma cell line growth inhibition [RAS]
# Details: for viability, T/C: stronger effect = lower value; for IC50: curve of compound
# Text: RAS pathway inhibitors in Combinations in Complex Spheroids
# A high-throughput screen of multi-cell type tumor spheroids was designed to identify active combinations of RAS pathway inhibitors and targeted small molecules. Complex spheroids include a stromal component modeled by human endothelial cells (HUVEC) and fibroblasts modeled by human mesenchymal stem cells (MSCs). The concentration ranges selected for each drug and investigational agent were based upon clinically achievable concentrations if the clinical Cmax of the agent was known.
# Compounds. The drugs and investigational agents: abemaciclib (NSC768073), cobimetinib (NSC768068), divarasib (GDC6063, NSC841802), docetaxel (NSC628503), GDC-1971 (RLY-1971, NSC841576), gemcitabine (NSC613327), inavolisib (NSC800729), ipatasertib (NSC767898), KB-0742 (NSC834161), MRTX-1133 (NSC836407), osimertinib (NSC779217), RMC-4630 (NSC839698), RMC-6236 (NSC851965), RMC-6291 (NSC852671), Ro-3306 (NSC812927), sapanisertib (NSC764658), SN-38 (NSC673596), staurosporine (NSC755774), SY5609 (NSC837396), and tovorafenib (DAY101, NSC766906), were obtained from the National Cancer Institute (NCI) Developmental Therapeutics Program Chemical Repository. The FDA-approved anticancer drug set is available from the NCI Developmental Therapeutics Program. […] The stock solutions were prepared in dimethyl sulfoxide (DMSO, Sigma-Aldrich, St. Louis, MO, cat. D2650) at 800-fold the tested concentration and stored at -70 degrees C prior to their use. All drugs and investigational agents were tested over a range starting from a high concentration at or near the clinical Cmax and decreasing in half-log increments. If the clinical Cmax for an agent had not been determined, the highest concentration tested was 10 microM.
# Cell Culture. All cells were maintained in an incubator at 37 degrees C and 5% CO2 with 95% humidity. The PDC lines were cultured according to standard operating procedures established by the NCI PDMR. All PDCs were thawed and cultured in Matrigel-coated flasks prepared with a working solution of 1X Ham's F-12 nutrient mix, without supplementation (Invitrogen, Waltham, MA, cat. 11765054), 100 U/mL penicillin-streptomycin (Invitrogen, cat. 15140122), and 2.5% Matrigel (Corning Inc., Corning, NY, cat. 354248) for the first three passages. The 362531-283-R-J2-PDC and 782815-120-R-J1-PDC lines were cultured in 6C/Colon 1B media, which includes advanced DMEM/F-12 (Thermo Fisher Scientific, cat. 12634028), 10 mM HEPES (Thermo Fisher Scientific, cat. 15630080), 1X GlutaMAX supplement (Thermo Fisher Scientific, cat. 35050061), 0.1 mg/mL primocin (InvivoGen, San Diego, CA, cat. ant-pm-2), 10% defined fetal bovine serum, heat inactivated (HyClone Laboratories Inc., Logan, UT, cat. SH30070.03HI), 50% L-WRN conditioned media (ATCC, cat. CRL-3276), 1.25 mM N-Acetyl-L-cysteine (Sigma-Aldrich, cat. A9165), 10 mM nicotinamide (Sigma-Aldrich, cat. N0636), 1X B-27 supplement (Thermo Fisher Scientific, cat. 17504044), 1X N-2 supplement (Thermo Fisher Scientific, cat. 17502048), 50 ng/mL human EGF (Thermo Fisher Scientific, cat. PHG0311), and 10 microM Y-27632 dihydrochloride (Tocris Bioscience, cat. 1254). The K12877-001-R-J1-PDC line was cultured in 6I media, which includes all 6C/Colon 1B media plus 10 ng/mL human FGF-10 (PeproTech, cat. 100-26), 1 ng/mL human FGF-2 (PeproTech, cat. 100-18B), 1 µM prostaglandin E2 (Tocris Bioscience, cat. 2296), […] hydrocortisone (Sigma-Aldrich, cat. H4001), and […] bovine insulin (Sigma-Aldrich, cat. I6634). The K86415-001-R-J1-PDC line was cultured in 6D media, which includes all 6C/Colon 1B media components minus the L-WRN conditioned media. The 485176-168-R4-J1-PDC was cultured in PANC media, which includes all 6C/Colon 1B media plus 100 ng/mL human FGF-10 (PeproTech, cat. 100-26), 500 nM SB-431542 (Selleckchem, cat. S1067), and 10 nM gastrin (Tocris Bioscience, cat. 3006). […]
# 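Note: spheroids exposed to agents for seven days before readout.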
SMILES,"viability, T/C (compound 0.0316 µM)","viability, T/C (compound 0.1 µM)","viability, T/C (compound 0.316 µM)","viability, T/C (compound 1 µM)","viability, T/C (compound 3.16 µM)","viability, T/C (compound 10 µM)",IC50
CC(=O)OC12COC1CC(O)C1(C)C(=O)C(O)C3=C(C)C(OC(=O)C(O)C(NC(=O)OC(C)(C)C)c4ccccc4)CC(O)(C(OC(=O)c4ccccc4)C21)C3(C)C (stereo not drawn),16.4% [middle of 4 runs],15.4% [middle of 4 runs],14% [middle of 4 runs],16.1% [middle of 4 runs],19.1% [middle of 4 runs],29.6% [middle of 4 runs],< 0.0316 µM
CC(C)NCC(C(=O)N1CCN(c2ncnc3c2C(C)CC3O)CC1)c1ccc(Cl)cc1 (stereo not drawn),104% and 101% (2×) and 98.3%,100% [middle of 4 runs],94.8% [middle of 4 runs],86.2% [middle of 4 runs],77.1% [middle of 4 runs],52.3% [middle of 4 runs],> 10 µM and 8.61 µM
CC1(O)CCCC1n1c(=O)c(C(F)F)cc2cnc(NC3CCN(S(C)(=O)=O)CC3)nc21 (stereo not drawn),104% [middle of 4 runs],74% [middle of 4 runs],50.7% [middle of 4 runs],42.3% (2×) and 46.1% and 41.8%,47.1% [middle of 4 runs],19.6% [middle of 4 runs],469 nM [middle of 4 runs]
CCC(CC)c1cc(NC2CCC(N)C2)n2nccc2n1 (stereo not drawn),106% [middle of 4 runs],99.2% [middle of 4 runs],115% and 105% (2×) and 109%,–,4.93% [middle of 4 runs],8.61% [middle of 4 runs],1.96 µM [middle of 4 runs]
C[C@@H](NC(=O)c1ncnc(N)c1Cl)c1ncc(C(=O)Nc2cc(C(F)(F)F)c(Cl)cn2)s1,114% (3×) and 115%,104% [middle of 4 runs],109% [middle of 4 runs],93.4% and 96.5% (2×) and 92.5%,108% [middle of 4 runs],82.4% [middle of 4 runs],> 10 µM
Cc1nc(N2CCC3(CC2)COC(C)C3N)c(CO)nc1Sc1ccnc(N)c1Cl (stereo not drawn),102% [middle of 4 runs],93.5% [middle of 4 runs],88.9% [middle of 4 runs],72.8% [middle of 4 runs],–,–,> 10 µM
NC1c2ccccc2OC12CCN(c1cnc3c(N4CCCc5ncccc54)n[nH]c3n1)CC2 (stereo not drawn),92.8% [middle of 4 runs],82.1% [middle of 4 runs],–,70.1% [middle of 4 runs],–,–,> 10 µM
